Source: US20030216427A1, “Amine derivatives for the treatment of apoptosis” (priority 2000, published 2003)
Each block holds one molecule with its values, some of them ahead of it.

Columns and labels:
gerbils = assay: Global ischemia in gerbils (in vivo); parameters: species or system gerbil; settings: 30 mg/kg, 5 min carotid occlusion
Procedure: The ability of the amine compounds of formula I to protect cell death during a stroke event may be assessed using the following protocol:
Anesthesia: halothane or isoflurane (0.5-4%).
Sheaving of the gorge and incision of the skin.
The common carotid arteries (left and right) are freed from tissue.
Occlusion of the arteries using Bulldog microclamps during 5 min.
Disinfection of the surgery plan (Betadine®) and suture of the skin (Autoclip® or Michel's hooks).
Stabulation of the animals under heating lamp until awake.
Stabulation of the animals in the animalry in individual cages.
7 days after ischemia (Decapitation or overdose of pentobarbital).
Freezing of the brain in isopentane (−20° C.)
Slicing of the hippocampus using a cryo-microtome (20 μm).
Staining with cresyl violet and/or TUNEL method
Evaluation of the lesions (in CA1/CA2 subfields of the hippocampus)
Gerhard & Boast score modified or
Cell counting in the CA1/CA2
Microdissection of the cerebral structures
Parameters determined: DNA fragmentation, lactate, calcium penetration.
Analytical methods: ELISA, colorimetry, enzymology, radiometry.
Administration of the test article or the vehicle: 15 min after reperfusion (5-10 min after the recovery of the anesthesia).
50 animals : 5 groups of 10 (group A: control, groups B-D : test article at 3 doses and group E : reference compound (ketamine 3×120 mg/kg, ip or Orotic acid 3×300 mg/kg, ip).

[1] = test system: Sympathetic neurons from superior cervical ganglia (SCG) of newborn rats; assay: Sympathetic neuron culture and survival assay; format: cell-based, rat; settings: compound at 10 μM; 24 hours after cell death induction by anti NGF antibody, MTT
Procedure: Cell death is induced at day 4 after plating by exposing the culture to medium containing 10 µg/ml of anti NGF antibody (Boehringer Mannheim Corp., Indianapolis, Ind.) and no NGF or arabinosine, in the presence or absence of amino derivatives according to formula I. 24 hours after cell death induction, determination of cell viability is performed by incubation of the culture for 1 hour, at 37° C. in 0.5 mg/ml of 3-(4,5-dimethyl-thiazol-2-yl)2,5 diphenyl tetrazolium bromide (MTT). After incubation in MTT cells are re-suspended in DMSO, transferred to a 96 MTT plate and cell viability is evaluated by measuring optical density at 590nm.

[2] = test system: Bid-induced Bax activation; assay: Release of cytochrome c triggered by Bid-induced Bax activation (mitochondria isolated from HeLa cells); format: biochemical; settings: compound at a concentration of 5 μM, 10 nM recombinant Bid
Procedure: Concerning the Bid-induced activation of Bax leading to mitochondrial Cytochrome C release, it is referred to the description of Martinou et al. in The Journal of Cell Biology, Vol. 144, No. 5, Mar. 8, 1999, pages 891-901 as well as Eskes, Desagher, Antonsson and Martinou in Molecular and Cellular Biology, February 2000, p. 929-935, Vol. 20, No. 3. Mitochondria isolated from HeLa cells are incubated for 15 min at 30° C. in 100 μl of KCl buffer in the presence or absence of 10 nM recombinant Bid. […] Following incubation, mitochondria were centrifuged for 5 min at 13000 g at 4° C. and the supernatant is collected for cytochrome c analysis. Cytochrome c is detected by Western blotting. The cytochrome c bands are scanned and quantified using a Bio-Rad (GS-700 Imaging Densitometer).

recombinant Bax = target: T1, recombinant Bax (Homo sapiens, UniProt Q07812); assay: In vitro assay for cytochrome c release (mouse liver mitochondria incubated with recombinant Bax); format: biochemical; settings: compound at a concentration of 10 μM, 200 nM recombinant Bax
T1 construct: Bax-α lacking 20 amino acids at the COOH-terminus; GST (cleaved yes); His; made in house; host or cells: Escherichia coli
T1 sequence (Q07812 1-172 limits assumed): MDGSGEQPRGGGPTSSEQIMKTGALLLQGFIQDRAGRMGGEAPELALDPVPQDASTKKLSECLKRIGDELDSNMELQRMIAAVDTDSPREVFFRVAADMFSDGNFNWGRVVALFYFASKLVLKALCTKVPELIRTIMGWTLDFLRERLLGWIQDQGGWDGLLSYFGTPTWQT
From the text: Hunan Bax-α lacking 20 amino acids at the COOH-terminus is expressed as a GST fusion protein or a His-tagged protein in Escherichia coli, and the protein is purified from the soluble cell fraction. In brief, the GST-Bax fusion protein is applied to a glutathione-Sepha-rose column, and Bax was released by cleavage with thrombin (0.6U/mL). Bax is subsequently purified on heparin-Sepharose, followed by fast protein liquid chromatography (FPLC) Mono Q. His-tagged Bax is purified on a Ni-nitriloacetic acid-agarose column followed by FPLC MonoQ:
Mitochondria are isolated from mouse liver cells by differential centrifugation Cells are broken with a dounce homogenizer and the suspension is centrifuged at 2,000 g in an Eppendorf centrifuge at 4° C. This procedure is repeated until almost all the cells are broken. Supernatants from each step are pooled before centrifugation at 13,000 g at 4° C. for 10 min. […]
Mitochondria (30 μg) from mouse liver are incubated with 200 nM recombinant Bax in the presence of various compounds (5 μM) in 200 μL of KCl buffer for 20 min at 30° C. and are then centrifuged for 4 min at 13,000 g at 4° C. […] Antigen-antibody complexes are detected using horseradish peroxidase-conjugated goat anti-rabbit IgG and enhance chemi-luminescence detection reagents. The cytochrome c bands are scanned and quantified using a Bio-Rad (GS-700 Imaging Densitometer).

male Wistar rats [3] = assay: Transient model of focal cerebral ischemia (transient middle cerebral artery occlusion); format: in vivo, rat; settings: dose of 1 mg/kg (i.v.)
From the text: The compounds of the present invention were also subjected to the transient model of focal cerebral ischemia. The method used was adapted from Nagasawa and Kogure, Stroke, 20, 1037, 1989 as well as Zea Longa, Weinstein, Carlon and Cummins, Stroke, 20, 84, 1989.

male Wistar rats [4] = assay: Kainate-induced neuronal cell death in the rat hippocampus; format: in vivo; settings: dose of 30 mg/kg (i.v.)
Procedure: The compounds of the present invention were also subjected to the model of kainate-induced neuronal cell death in the rat hippocampus. The method used was adapted from Gelowitz, Paterson, Pharmacol.Biochem.Behav., 62: 255-62 (1999), Magyar et al. Transm.Suppl., 52: 109-23 (1998) as well as Sperk et al, Brain Re., 338: 289-95 (1985). […] According to a preferred embodiment, the tested compounds display a protection rate of at least 25%, preferably of at least 40% at a dose of 30 mg/kg (i.v.)

Compound: CCCCCCCCCCCCC(=O)N1CCC[C@@H]1C(=O)NCCCCCN [Example 139, (R)-N-(5-aminopentyl)-1-tridecanoylpyrrolidine-2-carboxamide]
protection rate of cell survival (gerbils): ~55%

Compound: CCCCCCCCCCCCC(=O)N1CCCC[C@@H]1C(=O)NCCCCCCN [Example 2, (R)-N-(6-aminohexyl)-1-tridecanoylpiperidine-2-carboxamide]
neuronal survival rate [1]: about 41%

Compound: CCCCCCCCCCCCC(=O)N(C)[C@H](C(=O)NCCCCCCN)C(C)C [Example 22, (S)-N-(1-{[(6-aminohexyl)amino]carbonyl)-2-methylpropyl)-N-methyltridecanamide]
inhibition of the cytochrome c release [2]: about 95%

inhibition at 10 µM (recombinant Bax): ~88%
Compound: CCCCCCCCCCCCC(=O)N1CCC[C@H]1C(=O)NCCCCCCN [Example 7, (S)-N-(6-aminohexyl)-1-tridecanoylpyrrolidine-2-carboxamide]

Compound: CCCCCCCCCCCCC(=O)N1CCCC[C@H]1C(=O)NCCCCCCN [Example 1, (S)-1-Tridecanoyl-piperidine-2-carboxylic acid (6-amino-hexyl)-amide]
decrease in the cortex infarct volume (male Wistar rats [3]): about 56%
protection rate (male Wistar rats [4]): about 50%
protection rate of cell survival (gerbils): about 45%
